In PubChem BioAssay AID624254 (Broad Institute, 2012):
Activity calls are given as the source filed them. No rule for the calls is given here.

assay: Luciferase light induction in v cholerae bh1651, agonist dose response, confirmatory (AID 624254); conditions: V. cholerae BH1651 luxOD47E, luciferase light induction, 6 h; at 50 µM (top of the series)

Structure (SMILES) | activation (light increase)
Cc1nnc2c3ccccc3c(-c3ccc(O)cc3)nn12 | inactive
COc1ccccc1NS(=O)(=O)c1cn(C)cn1 | inactive
O=C(NCc1ccccc1F)C(=O)NCC1CCCN1S(=O)(=O)c1ccccc1 (stereo unspecified) | inactive
COCCCn1c(=S)[nH]c2ccc(N3CCOCC3)cc2c1=O | inactive
Cc1ccc(C)c(N(C(=O)Cn2nnc(-c3cccs3)n2)C(C(=O)NC2CC2)c2ccc(C)o2)c1 (stereo unspecified) | inactive
NS(=O)(=O)c1cc(C(=O)OCC(=O)NC2CCCCCCC2)ccc1Cl | inactive
COc1cccc(CNC(=O)C2CSC3(C)CCC(=O)N23)c1 (stereo unspecified) | inactive
CCOc1ccccc1N(CC(=O)Nc1ccc2c(c1)OCCO2)S(C)(=O)=O | inactive
Cc1ccc(C(=O)OCC(=O)NC2CCCC2)cc1C | inactive
CC(C)NC(=O)c1ccc(-c2cccc(C(F)(F)F)c2)o1 | inactive
CN(C1CCCCC1)S(=O)(=O)CCNC(=O)c1ccccc1 | inactive
COC(=O)c1ccc(C2C(C(C)=O)=C(O)C(=O)N2CCO)cc1 (stereo unspecified) | inactive
COc1cccc(CN(C)C(=O)CSC(C)C(=O)Nc2cc(C)on2)c1OC (stereo unspecified) | inactive
COc1ccc(OCc2nnc3n2N=C(c2ccc(OC)cc2)CS3)cc1 | inactive
COc1ccc(C(=O)N2CCC(C(=O)c3ccc(F)cc3)CC2)cc1 | inactive
COc1cccc(Nc2nc(NCCO)c3ccccc3n2)c1 | inactive
O=C(COC(=O)[C@H](Cc1c[nH]c2ccccc12)NC(=O)c1ccc(Cl)cc1)Nc1ccc2c(c1)OCO2 | inactive
CCCCN1C(=O)C(O)(CC(=O)c2ccccn2)c2ccccc21 (stereo unspecified) | inactive
CCOC(=O)C1CCN(C(=O)C2c3ccccc3C(=O)N(C)C2c2ccc(OC)cc2)CC1 (stereo unspecified) | inactive
COc1ccc(-c2nnc3c4ccccc4c(C)nn23)cc1 | inactive
CCCc1ccc2oc(C(=O)N(Cc3ccncc3)CC3CCCO3)c(C)c2c1 (stereo unspecified) | inactive

Structure (SMILES) | activation (light increase)
C[C@@H]1CN([C@H](C)CO)C(=O)c2cccc(NC(=O)C3CC3)c2O[C@H]1CN(C)S(=O)(=O)c1cccs1 | inactive
O=C(Nc1cccc(-c2ccc(N3CCOCC3)nn2)c1)c1ccccc1Cl | inactive
COC(=O)c1cc(C(=O)OCC(=O)c2ccc3c(c2)NC(=O)CO3)cc([N+](=O)[O-])c1 | inactive
CCOC(=O)c1c(NC(=S)Nc2ccc(Cl)cc2)sc(C)c1C | inactive
O=C(NCc1ccco1)c1cc2n(n1)C(C(F)(F)F)CC(c1ccc(Cl)c(Cl)c1)N2 (stereo unspecified) | inactive
Cc1cc(C(=O)CSc2nnc(-c3ccco3)o2)c(C)n1CC1COc2ccccc2O1 (stereo unspecified) | inactive
CCCS(=O)(=O)N1CCCC(C(=O)NCCCN(C)c2ccccc2)C1 (stereo unspecified) | inactive
COc1ccc(CCNC(=O)C(=O)NCC2CCCN2S(=O)(=O)c2ccc(OC)cc2)cc1 (stereo unspecified) | inactive
Cc1ccccc1NC(=O)Cc1nc(COC(=O)c2ccccn2)cs1 | inactive
Cc1ccc2cc(C(c3nnnn3C3CCCC3)N3CCN(c4ccc(F)cc4)CC3)c(=O)[nH]c2c1 (stereo unspecified) | inactive
CCN(C(=O)COc1ncnc2ccc(Br)cc12)C1CCS(=O)(=O)C1 (stereo unspecified) | inactive
O=S(=O)(Nc1cccc(S(=O)(=O)N2CCCCC2)c1)c1ccccc1F | inactive
CCN(CC(=O)Nc1c(F)cccc1F)C(=O)C1CC(=O)N(c2ccccc2OC)C1 (stereo unspecified) | inactive
Cc1cccc(-c2noc(CN(C(=O)C34CC5CC(CC(C5)C3)C4)C(C)C)n2)c1 | inactive
CCCCCn1nc(C(=O)N(CC(C)C)c2c(N)n(CCCC)c(=O)[nH]c2=O)c2ccccc2c1=O | inactive
COc1ccc(N2CCN(CC(=O)Nc3c(C)cc(C)cc3C)CC2)cc1 | inactive
O=C(c1ccc2c(c1)OCO2)N(Cc1ccco1)C1(C(=O)NC2CCCCC2)CCCCC1 | inactive
Cc1ccc(N(C(C)C(=O)N2CCCCC2)S(C)(=O)=O)cc1C (stereo unspecified) | inactive
CN(c1ccccc1)S(=O)(=O)c1nnc(NC(=O)C2CCCCC2)s1 | inactive
COc1cc(S(=O)(=O)N(Cc2cccs2)C2CC2)ccc1-n1cnnn1 | inactive
Cc1cc(=O)oc2ccc(OCc3ccccc3)cc12 | inactive

Structure (SMILES) | activation (light increase)
COc1ccccc1CCN1CCCC(CN(C)C(=O)c2ccco2)C1 (stereo unspecified) | inactive
COCCN(C(=O)C1CCC1)c1nnc(-c2cccnc2)s1 | inactive
CCOc1ccc(S(=O)(=O)Nc2ccc(C(=O)NCC(c3ccco3)N3CCCCC3)cc2)cc1 (stereo unspecified) | inactive
Cc1ccc(OCCNC(=O)c2ccc(C)o2)cc1 | inactive
CCc1ccc(C(=O)OCC(=O)NC2CCCC2)cc1 | inactive
Cc1noc(C)c1NC(=O)Nc1cccc2c1O[C@H](CN(C)S(=O)(=O)c1cccs1)[C@@H](C)CN([C@@H](C)CO)C2=O | inactive
COc1ccc(S(=O)(=O)N2CCCC(C(=O)NCc3ccncc3)C2)cc1 (stereo unspecified) | inactive
OCCn1c(SC2CCCCC2)nc2ccccc21 | inactive
CNC(=O)c1cc2cc(OC)ccc2n1CCN(Cc1ccccc1)Cc1ccccc1 | inactive
O=C(CNC(=O)c1ccncc1)Nc1ccc(F)c(F)c1 | inactive
Cc1ccc(/C=C/C(=O)OCC(=O)NCCc2ccc(S(N)(=O)=O)cc2)o1 | inactive
c1ccc(-c2ccc(CN3Cc4ccccc4-n4nncc4C3)cc2)cc1 | inactive
Nc1nnc(SCC(=O)Nc2ccc3c(c2)OCCO3)s1 | inactive
CC(C)Oc1ccc(OCCCN2CCCCCC2)cc1 | inactive
CC(C)N1CCc2c(sc(NC(=O)c3ccc4ccccc4c3)c2C(N)=O)C1 | inactive
CCN(CC)c1ccc(CNc2nnnn2C)cc1 | inactive
Cc1ccccc1OCC(=O)OCC(=O)N1CCCc2ccccc21 | inactive
O=C(OCc1cc(=O)n2ccsc2n1)c1ccc(OC(F)F)cc1 | inactive
Cc1ccc(NC(=S)NCCc2c[nH]c3ccccc23)cc1 | inactive
